Experimental data: US4220795A, “Cyclobutyl substituted derivatives of prostaglandin analogs” (Miles Laboratories, Inc., priority 1978, dated 1980)

Experiments:
rat uterus = experiment: Effects on the Rat Uterus (Test F); conditions: for EC50: read-out: Activity value, Test F: Effects on Rat Uterus (ED50, response of 50% that of carbachol)
Description: F. Evaluation of the Effects of Prostaglandin Analogs III on the Rat Uterus
The uterine stimulant effect of test compounds is determined in segments of uterus obtained from rats (140-160 g) pretreated subcutaneously with 1 mg/kg of diethylstibesterol 18 hr before the experiment. The tissues are placed in 10 ml chambers filled with de-Jalon solution at 29° C. and bubbled with 95% O2 and 5% CO2, and prepared for isometric recording with force displacement transducers. Preparations are stretched to an initial tension of 1 g and are left undisturbed for 30 min, after which two responses to 1 mcg/ml of carbachol added to the bath at a 10 min interval, are obtained (the value of the second response is recorded). Responses to increasing concentrations of the test compound (0.001 to 10.0 mcg/ml with one log intervals) are then recorded every 10 min. Preparations are washed four times after each response. All doses of drugs are administered in a 0.1 ml volume. Since it has been observed that the magnitude of the second response to carbachol, which is approximately 10% greater than the first, is close to the maximal response of the tissue, such value is taken as a measure of the sensititity of the particular segment. Responses to each concentration of the test compound are expressed in terms of percentage of the second response to carbachol and the ED50 (dose producing a response of 50% that of carbachol) is calculated graphically. Activity is scored according to the following scale: […]

[1] = test system: blood pressure (hypertensive rat); experiment: Effects on Blood Pressure in the Hypertensive Rat (Test E); format: in vivo; set-up: key: 0: Not significant at any time interval; 1: Significant at one time interval; 2: Significant at two time intervals; 3: Significant at three time intervals; 4: Significant at all four intervals; conditions: 1 mg/kg intraperitoneal, 2, 4, 6 and 8 hr
Description: E. Evaluation of the Effects of Prostaglandin Analogs III on Blood Pressure in the Hypertensive Rat
The acute antihypertensive activity of test compounds is determined in rats made hypertensive by the procedure of Grollman (A. Proc. Soc. Exper. Biol. Med., 57:102, [1944]). Female rats weighing between 60 and 100 g are anesthetized with ether, the right kidney approached through a flank retroperitoneal incision, decapsulated and tied with a figure-of-eight ligature. The animals are left to recover and two weeks later are again anesthetized and the contralateral kidney removed. Four weeks after the second operation the rats are subjected to indirect blood pressure measurements and those showing systolic pressure values greater than 160 mmHg are selected for drug testing.
Blood pressure is measured in the tail with an inflatable occluding cuff placed at the base of the extremity and a pulse detector located distally. The cuff is inflated to approximately 300 mmHg and is slowly deflated until pulsations appear, indicating the level of systolic pressure; diastolic pressure is not recorded by this procedure. All measurements are carried out in unanesthetized, unsedated animals maintained in a warm environment during the recording procedure and for at least 6 hr before. In all cases, three pressure readings are obtained in succession and mean values are calculated thereof.
Experiments are carried out in groups of five hypertensive rats in which systolic pressure is determined immediately before and 2, 4, 6 and 8 hr after the intraperitoneal administration of the test compound at a dose of 1 mg/kg. Drugs are diluted from stock solutions with phosphate buffer (Lee et al., Prostaglandins 3:29 [1973]), so as to inject this quantity in a volume of 1 ml/kg. Changes from control blood pressure values are calculated for each interval both in mmHg and in per-cent, and evaluated for significance by means of Wilcoxon's signed rank test (Wilcoxon and Wilcox, Some rapid approximate statistical procedures, Lederle Laboratories, Pearl River [1964]).

blood pressure = experiment: Effects on Blood Pressure and Heart Rate in the Anesthetized Cat (Test D); format: in vivo; conditions: Felis catus, iv, i.v. 0.01 to 10.0 mcg/kg, scored on hypotension, read-out: Activity value, Test D: Normal Feline Blood Pressure and Heart Rate (ED50 mmHg)
Description: D. Evaluation of the Effects of Prostaglandin Analogs III on Blood Pressure and Heart Rate in the Anesthetized Cat
The acute effects of test compounds on blood pressure and heart rate were determined in cats of either sex anesthetized with a mixture of pentobarbital sodium (35 mg/kg, i.v.) and barbital sodium (100 mg/kg, i.v.). Cannulas were placed in the trachea to allow adequate spontaneous ventilation, in a femoral artery for blood pressure recording with a strain gage transducer, and in a saphenous vein for drug administration. Heart rate was recorded by means of a cardiotachometer driven by the R wave of the electrocardiogram. After a period of 10 min of stable recordings of blood pressure and heart rate, the test compound was administered intravenously at doses increasing from 0.01 to 10.0 mcg/kg, spaced one log and injected at 10 min intervals. All doses were injected in a volume of 0.1 ml/kg. Modifications of blood pressure and heart rate induced by the test compound were expressed both in absolute units (mmHg and beats/min) and as percent of values recorded immediately before administration of each dose. Biphasic responses were tabulated in the order in which they occur. The direction of the observed changes was also noted (+ for increase and - for decrease).
Activity of compounds in this test was judged only on the basis of the degree of hypotension observed. Thus, the ED50 mmHg (dose decreasing blood pressure by 50 mmHg) was calculated graphically and the compound scored according to the following scale: […]

femoral blood flow = experiment: Effects on Femoral Blood Flow in the Dog (Test C); format: in vivo, dog (mongrel); conditions: anesthetized dog, intraarterial 0.001 to 10 mcg
Description: C. Evaluation of the Effects of Prostaglandin Analogs III on the Femoral Blood Flow in the Dog
The peripheral vasodilator or constrictor effects of test compounds were determined in mongrel dogs of either sex, weighing between 10 and 20 kg anesthestized intravenously with 35 mg/kg of sodium pentobarbital. An external iliac artery was dissected immediately above the femoral arch for a length of approximately 5 cm and a previously calibrated, non-connulating electromagnetic flowmeter sensor with a lumen between 2.5 and 3.5 mm was placed snugly around the vessel. Cannulas were placed in a branch of the artery arising distally to the location of the flowmeter sensor for intraarterial drug administrations, in the contralateral femoral artery for systemic blood pressure recordings and in the trachea for artificial respiration with room air. Femoral blood flow and systemic blood pressure were continuously recorded with an electromagnetic flowmeter and pressure transducer, respectively.
After an adequate control period, test compounds were injected intraarterially at one log-spaced doses ranging from 0.001 to 10 mcg., in a volume of 0.5 ml and at 5 to 10 min intervals. Maximum changes in bloodflow, as well as any variations in blood pressure, were tabulated for each dose in absolute values (ml/min and mmHg). The calculations were made taking as control values those existing immediately before administration of each dose. The direction of the observed change (+ for increase and - for decrease) was also noted. The dose changing bloodflow by 100 ml/min (ED100 ml/min) was calculated graphically and was used for scoring activity as follows: […]

[2] = rat uterus segments, 0.001 to 10.0 mcg/ml, 29° C.

Q: O=C1C[C@@H](O)[C@H](/C=C/[C@H](O)C2CC(CC3CCC3)C2)[C@H]1CCCCCCCO (stereo partly drawn) [TR-4832, 1,11α,15R-Trihydroxy-16,18-methano-20,20-propanoprost-13E-en-9-one] was tested. Which EC50 (rat uterus; [2]) did it give?
A: > 10 µg/mL

Q: How did the EC50 (rat uterus; [2]) turn out when CCC1CC(C)([C@H](O)/C=C/[C@H]2[C@H](O)CC(=O)[C@@H]2CCCCCCCO)C1 (stereo partly drawn) [TR-4688, 16,18-Methano-16-methyl-1,11α,15R-trihydroxyprost-13E-en-9-onc] was run?
A: > 10 µg/mL

Q: And the “Activity value, Test E: Effects on Blood Pressure in Hypertensive Rat (blood pressure decrease)” value [1]?
A: 0

Q: And the ED (50 mmHg) (blood pressure)?
A: > 0.0101 mg/kg

Q: What about the “Activity value, Test C: Increase in Canidae Femoral Blood Flow (ED100 ml/min)” value (from here on “Activity value, Test C: Increase”) (femoral blood flow) of the same compound?
A: 0 (>10.0)

Q: Which EC50 (rat uterus; [2]) does the source give for O=C1C[C@@H](O)[C@H](/C=C/[C@@H](O)C2CC(C3CCC3)C2)[C@H]1CCCCCCCO (stereo partly drawn) [TR-4880, 1,11α,15S-Trihydroxy-16,18-methano-19,20-ethanoprost-13E-en-9-one] here?
A: > 10 µg/mL

Q: For CCC1CC(C(O)/C=C/[C@H]2C=CC(=O)[C@@H]2CCCCCCC(=O)OC)C1 (some centres unmarked) [TR-4280, Methyl 15RS-hydroxy-16,18-methano-9-oxoprosta-10,13E-dien-1-oate], which EC50 (rat uterus; [2]) is on record?
A: > 10 µg/mL

Q: What does the source list for CC1([C@@H](O)/C=C/[C@H]2[C@H](O)CC(=O)[C@@H]2CCCCCCCO)CCC1 [TR-4674, 16,19-Cyclo-16-methyl-20-nor-1,11α,15S-trihydroxyprost-13E-en-9-one]?
A: EC50 (rat uterus; [2]): > 10 µg/mL; Activity value, Test E: Effects on Blood Pressure in Hypertensive Rat (blood pressure decrease) [1]: 0; ED (50 mmHg) (blood pressure): > 0.0101 mg/kg

Q: Which EC50 (rat uterus; [2]) does the source give for CCC1CC([C@@H](O)/C=C/[C@H]2[C@H](O)CC(=O)[C@@H]2CCCCCCO)C1 (relative stereo) [TR-4675, (±)16,18-Methano-1-nor-2,11α,15R-trihydroxyprost-13E-en-9-one] here?
A: > 10 µg/mL

Q: What about the ED (50 mmHg) (blood pressure) of the same compound?
A: > 0.0101 mg/kg

Q: What about the “Activity value, Test C: Increase” value (femoral blood flow) of the same compound?
A: 0 (>10.0)

Q: How did the EC50 (rat uterus; [2]) turn out when COC(=O)CCCCCC[C@H]1C(=O)C[C@@H](O)[C@@H]1/C=C/[C@@H](O)C1CC(C2CCC2)C1 (stereo partly drawn) [TR-4887, Methyl 11α,15S-dihydroxy-16,18-methano-19,20-ethano-9-oxoprost-13E-en-1-oate] was run?
A: > 10 µg/mL

Q: Which EC50 (rat uterus; [2]) does the source give for O=C1C[C@@H](O)[C@H](/C=C/[C@H](O)C2CC(C3CCC3)C2)[C@H]1CCCCCCCO (stereo partly drawn) [TR-4881, 1,11α,15R-Trihydroxy-16,18-methano-19,20-ethanoprost-13E-en-9-one] here?
A: > 10 µg/mL

Q: Which EC50 (rat uterus; [2]) does the source give for COC(=O)CCCCCC[C@H]1C(=O)C[C@@H](O)[C@@H]1/C=C/[C@H](O)C1CC(C2CCC2)C1 (stereo partly drawn) [TR-4882, Methyl 11α,15R-dihydroxy-16,18-methano-19,20-ethano-9-oxoprost-13E-en-1-oate] here?
A: > 10 µg/mL

Q: With CCC1CC([C@H](O)/C=C/C2C(O)CC(O)C2CCCCCCCO)C1 (stereo partly drawn) [TR-4626, 16,18-Methanoprost-13E-en-1,9α,11α,15S-tetraol] as the compound, how does the “Activity value, Test F: Effects on Rat Uterus (ED50, response of 50% that of carbachol)” value (rat uterus; [2]) read?
A: 0 (>10)

Q: What does the source list for CCC1CC(C)([C@@H](O)/C=C/[C@H]2[C@H](O)CC(=O)[C@@H]2CCCCCCCO)C1 (stereo partly drawn) [TR-4689, 16,18-Methano-16-methyl-1,11α,15S-trihydroxyprost-13E-en-9-one]?
A: EC50 (rat uterus; [2]): > 10 µg/mL; ED (50 mmHg) (blood pressure): > 0.0101 mg/kg; Activity value, Test C: Increase in Canidae Femoral Blood Flow (ED100 ml/min) (femoral blood flow): 0 (>10.0)

Q: For COC(=O)CCCCCC[C@H]1C(=O)C[C@@H](O)[C@@H]1/C=C/[C@@H](O)C1CC(CC2CCC2)C1 (stereo partly drawn) [TR-4797, Methyl 11α,15S-dihydroxy-16,19-methano-20,20-propano-9-oxoprost-13E-en-1-oate], which EC50 (rat uterus; [2]) is on record?
A: > 10 µg/mL

Q: For CCCCC1([C@H](O)/C=C/[C@H]2[C@H](O)CC(=O)[C@@H]2CCCCCCC(=O)OC)CCC1 [TR-4692, Methyl 11α,15R-dihydroxy-9-oxo-16,16-propanoprost-13E-en-1-oate], which EC50 (rat uterus; [2]) is on record?
A: > 10 µg/mL

Q: And the “Activity value, Test E: Effects on Blood Pressure in Hypertensive Rat (blood pressure decrease)” value [1]?
A: 0

Q: What about the ED (50 mmHg) (blood pressure) of the same compound?
A: 0.00101 to 0.01 mg/kg

Q: How did the “magnitude of the second response greater than the first” value (rat uterus; carbachol 1 mcg/ml, rat uterus, 10 min interval) turn out when C[N+](C)(C)CCOC(N)=O [carbachol, reference compound] was run?
A: approximately 10%

Q: How did the EC50 (rat uterus; [2]) turn out when CCC1CC(C)([C@H](O)/C=C/[C@H]2[C@H](O)CC(=O)[C@@H]2CCCCCCC(=O)OC)C1 (stereo partly drawn) [TR-4681, Methyl 11α,15R-dihydroxy-16,18-methano-16-methyl-9-oxoprost-13E-en-1-oate] was run?
A: > 10 µg/mL

Q: What about the ED (50 mmHg) (blood pressure) of the same compound?
A: 0.00101 to 0.01 mg/kg

Q: What about the “Activity value, Test C: Increase” value (femoral blood flow) of the same compound?
A: 2 (0.11-1.0)

Q: COC(=O)CCCCCC[C@H]1C(=O)C=C[C@@H]1/C=C/[C@@H](O)C1(C)CCC1 [TR-4683, Methyl 16,19-cyclo-15R-hydroxy-16-methyl-20-nor-9-oxoprosta-10,13E-dien-1-oate] was tested. Which EC50 (rat uterus; [2]) did it give?
A: > 10 µg/mL

Q: How did the EC50 (rat uterus; [2]) turn out when O=C1C[C@@H](O)[C@H](/C=C/[C@@H](O)C2CC(CC3CCC3)C2)[C@H]1CCCCCCCO (stereo partly drawn) [TR-4833, 1,11α,15S-Trihydroxy-16,18-methano-20,20-propanoprost-13E-en-9-one] was run?
A: > 10 µg/mL

Q: CCC1CC([C@H](O)/C=C/[C@H]2C=CC(=O)[C@@H]2CCCCCCCOC(C)=O)C1 (stereo partly drawn) [TR-4565, 1-Acetoxy-15S-hydroxy-16,18-methanoprosta-10,13E-dien-9-one] was tested. Which EC50 (rat uterus; [2]) did it give?
A: > 10 µg/mL

Q: What about the ED (50 mmHg) (blood pressure) of the same compound?
A: > 0.0101 mg/kg

Q: And the “Activity value, Test C: Increase” value (femoral blood flow)?
A: 1 (1.0.-10.0)

Q: With COC(=O)CCCCCC[C@H]1C(=O)C[C@@H](O)[C@@H]1/C=C/[C@H](O)C1CC(CC2CCC2)C1 (stereo partly drawn) [TR-4796, Methyl 11α,15R-dihydroxy-16,18-methano-20,20-propano-9-oxoprost-13E-en-1-oate] as the compound, how does the EC50 (rat uterus; [2]) read?
A: > 10 µg/mL

Q: Which EC50 (rat uterus; [2]) does the source give for CCC1CC(C)(C(O)/C=C/[C@H]2C=CC(=O)[C@@H]2CCCCCCC(=O)OC)C1 (stereo partly drawn) [TR-4694, Methyl 15R-hydroxy-16,18-methano-16-methyl-9-oxoprosta-10,13E-dien-1-oate] here?
A: > 10 µg/mL
